From paper PMC3919114, “Induction of Apoptosis of 2,4′,6-Trihydroxybenzophenone in HT-29 Colon Carcinoma Cell Line” (BioMed Research International, 2014)
Read-outs that look alike come from different tables or passages of the source. Values belong to the compound of their own block, whether it stands above or below them.

Experiments:
[1] = system: breast cancer cell line (MDA-MB231); settings: cited from earlier work
[2] = system: human esophageal cancer cells (TE-2); settings: cited from earlier work
HT-29 cells [3] = experiment: Cell cycle analysis by flow cytometry (PI staining); assay type: cell-based, human; settings: IC50 value of 115 μM
Protocol: After incubation, the cells were collected by trypsinization, fixed in ethanol, washed in warm PBS, and incubated at −20°C, overnight. Next, the cells were washed with 1 mL of cold PBS and stained with propidium iodide according to the Cycle TEST PLUS DNA Reagent Kit (Becton Dickinson, USA) protocol. The cells were sorted in a FACScalibur flow cytometer (BD, USA) using CellQuest Pro software (Becton Dickinson, USA) and a quantitative analysis of the cell cycle distribution was performed using a trial version of the ModFit LT software, version 4.0.
The HT-29 cells were treated with isolated bioactive 2,4′,6-trihydroxy-4-methoxybenzophenone for 24 h, 48 h, and 72 h. Treated and untreated cells were harvested with accutase and phosphate buffer saline, centrifuged, and stained with propidium iodide. The HT-29 cells were then analyzed by flow cytometry using CellQuest Pro software and their distribution in different phases of the cell cycle is shown in Figure 6(a). The resulting data were tabulated using the trial version of the ModFit L.V 4.0 software to represent a percentage of each cell cycle phase (G0/G1, S, and G2/M), as shown in Figure 6(b).

HT-29 cells [4] = experiment: Annexin V-FITC/PI staining assay by flow cytometry; assay type: cell-based, human
Protocol: (§1) The quantification of cell death was determined by flow cytometry using the Annexin V-FITC apoptosis detection kit according to the manufacturer's instructions (BD Pharmingen, BD Bioscience, USA). Briefly, 1 × 10^6 of the HT-29 cells were seeded into each Petri dish (30 mm) and after a 24 h incubation, various concentrations of the test compound were added and incubated for 24 h, 48 h, and 72 h, respectively. The cells were then washed with PBS, suspended in annexin V binding buffer and then added to an annexin V-FITC solution and propidium iodide (PI) for 10 minutes at room temperature. The samples were then analyzed using FACScalibur (BD Bioscience, USA) using CellQuest Pro analysis software (Becton Dickinson, USA).
(§2) Cells were treated with various concentrations (96 μM, 192 μM, and 288 μM) of the compound for 24 h, 48 h, and 72 h, respectively. They were then harvested with accutase and phosphate buffer saline and centrifuged, after which they were stained with Annexin V-FITC and propidium iodide and analyzed in FACScalibur with CellQuest Pro software. The number of early apoptotic cells, late apoptotic cells, live cells, and necrotic cells was counted in every 10,000 cells of each treatment. All data was expressed as the mean ± SD (standard deviation). The standard deviation was calculated for the treated and untreated cells. The SPSS program (version 16.0) found a significant difference between the treated and untreated cells ([…]).

[5] = Annexin V-FITC/PI staining assay by flow cytometry; assay type: cell-based, human; settings: human, HT-29 cells, 24 h, read-out: viable cells (LL)
Protocol: as §1, §2

[6] = system: human normal fibroblast lung cells (MRC-5); experiment: MTT cell proliferation assay, MRC-5; assay type: cell-based
Protocol: (§3) The HT-29 human colon carcinoma cell line, WRL-68 normal liver cells, and MRC-5 normal lung fibroblast […] cells were purchased from the American Type Culture Collection (ATCC, USA). The cells were placed into tissue culture flasks and grown in a medium containing 10% fetal bovine serum, 100 μg/mL of penicillin/streptomycin, and 100 μg/mL of amphotericin B at 37°C in a humidified atmosphere containing 5% CO2.
(§4) The MTT […]) cell proliferation assay was based on the protocol described by Mosmann. Briefly, cells from a confluent tissue culture flask were spun at 1,000 rpm for five minutes and resuspended in 1.0 mL of growth medium. Cells were then seeded into 96 well plates and incubated in a CO2 incubator at 37°C for 24 hours to allow the cells to adhere and achieve 70%–80% confluence. After 24 hours, the media was removed and the test compound, at varying concentrations of 4, 38, 96, 192, and 384 μM with 200 μL of 10% medium, was added to the respective wells. For negative control, untreated cells were used. After 24 h, 48 h, and 72 h of incubation, respectively, each well had 10 μL of the MTT stock solution added to the test sample and was then incubated in a dark place for three hours. The medium with the MTT solution was removed and 200 μL of absolute DMSO was added to each well in order to solubilise the formazan crystals that had formed. The total amount of formazan crystals was examined by measuring the absorbance at 540 nm using an ELISA plate reader. The assay was carried out in triplicate.
(§5) The percentage of inhibition (%) was calculated using the following formula: (1) percentage of inhibition (%) =OD control−OD sample×100% /OD control, where OD = optical densities.
(§6) The IC50 value is the concentration of test compounds which cause 50% inhibition or cell death, average from three experiments, and was obtained by plotting the percentage of inhibition versus the concentration of test compounds [13].

[7] = system: human normal liver cells (WRL-68); experiment: MTT cell proliferation assay, WRL-68; assay type: cell-based
Protocol: as §3, §4, §5, §6

[8] = system: HT-29 human colon carcinoma cell line; experiment: MTT cell proliferation assay, HT-29; assay type: cell-based; settings: read-out: IC50 against HT-29 cells
Protocol: as §3, §4, §5, §6

Mcl-1 = experiment: Western blot analysis, Mcl-1 expression in HT-29 cells; assay type: cell-based, human; settings: IC50 concentration (115 μM), 24 h, 48 h and 72 h
Protocol: (§7) The HT-29 cells were cultured in […] tissue culture flasks and incubated at 37°C under 5% CO2 until confluent. […] After incubation at the various times, the cells were detached with accutase in PBS, washed thoroughly with PBS twice, and were then lysed with protein lysis buffer (Sigma, USA) containingprotease inhibitors and shaken by hand for 15 min at room temperature. The lysates were then centrifuged at 13,000 ×g for 20 min at 4°C and the supernatant was collected for protein samples and kept at […] until SDS page analysis. Protein concentration was determined using a BCA (bicinchoninic acid) protein assay kit (Invitrogen, USA) with bovine serum albumin as the standard.
(§8) The proteins were transferred into polyvinylidene difluoride (PVDF) membranes by semidry transfer. Bands were visualized using the Western Max Horseradish Peroxidase Chromogenic Detection Kit protocol (AMRESCO, USA). Briefly, the membranes were blocked in a blocking buffer for 30 min at room temperature. Primary antibodies for Bcl-2, Bcl-xL, PUMA, Mcl-1, Bak, Bad, and Bax were then added. The membranes were incubated with gentle agitation at room temperature overnight. After incubation, the membranes were washed with washing buffer two times and then incubated with Western Max HRP Conjugated Anti-Rabbit Antibody for 45 min at room temperature with gentle agitation. […]

HT-29 cells [9] = experiment: Morphological detection of apoptosis (inverted and phase-contrast microscopy); assay type: cell-based, human; settings: IC50 concentrations (115 μM), 24 h, 48 h, 72 h
Protocol: HT-29 cells were placed in a Petri dish (30 mm) at a density of 1 × 10^5 cells/well plate and grown for 24 h. […] After the various incubation periods, morphological changes in the apoptotic bodies of the HT-29 cells were examined by inverted and phase-contrast microscopy (Leica, Germany) and photographed.

PUMA = experiment: Western blot analysis, PUMA expression in HT-29 cells; assay type: cell-based, human; settings: IC50 concentration (115 μM), 24 h, 48 h and 72 h
Protocol: as §7, §8

Bcl-2 = experiment: Western blot analysis, Bcl-2 expression in HT-29 cells; assay type: cell-based, human; settings: IC50 concentration (115 μM), 72 h treatment only
Protocol: as §7, §8

[10] = design: method as in earlier work; settings: from ethyl acetate extract of the leaves; cited from earlier work
Bak = experiment: Western blot analysis, Bak expression in HT-29 cells; assay type: cell-based, human; settings: IC50 concentration (115 μM), 72 h treatment only
Protocol: as §7, §8

Compound: COc1cc(O)c(C(=O)c2ccc(O)cc2)c(O[C@@H]2O[C@H](CO)[C@@H](O)[C@H](O)[C@H]2O)c1 [4′,6-dihydroxy-4-methoxybenzophenone 2-o-β-D-glucopyranoside]
antiproliferation activity against MDA-MB231 [1]: displayed antiproliferation activity

Compound: O=C(O)c1cc(O)c(O)c(O)c1 [Gallic acid]
anticancer properties against TE-2 cells [2]: possess anticancer properties

IC50 ([8]; 24 h): 172 ± 2.21 µM
IC50 ([8]; 48 h): 144 ± 2.66 µM
IC50 ([8]; 72 h): 122 ± 1.69 µM
Compound: COc1cc(O)c(C(=O)c2ccc(O)cc2)c(O)c1 [2,4′,6-trihydroxy-4-methoxybenzophenone]
cell percentage in the G2/M phase (HT-29 cells [3]; 24 h): 13.61%
cell percentage in the S phase (HT-29 cells [3]; 24 h): 15.70%
percentage of diploid cells in the G0/G1 phase (HT-29 cells [3]; 24 h): 70.69%
effect on cell cycle (HT-29 cells [3]; 24 h, 48 h, 72 h, time-dependent): cell cycle arrest in the G0/G1 phase
cell percentage in the G2/M phase (HT-29 cells [3]; 48 h): 3.17%
cell percentage in the S phase (HT-29 cells [3]; 48 h): 16.85%
percentage of diploid cells in the G0/G1 phase (HT-29 cells [3]; 48 h): 79.98%
cell percentage in the G2/M phase (HT-29 cells [3]; 72 h): 3.20%
cell percentage in the S phase (HT-29 cells [3]; 72 h): 8.60%
percentage of diploid cells in the G0/G1 phase (HT-29 cells [3]; 72 h): 88.21%
early apoptotic cells (LR) (HT-29 cells [4]; 96 μM, 24 h): 2.96%
late apoptotic cells (UR) (HT-29 cells [4]; 96 μM, 24 h): 12.28%
primary necrotic cells (UL) (HT-29 cells [4]; 96 μM, 24 h): 15.49%
early apoptotic cells (LR) (HT-29 cells [4]; 96 μM, 48 h): 10.87%
late apoptotic cells (UR) (HT-29 cells [4]; 96 μM, 48 h): 31.48%
primary necrotic cells (UL) (HT-29 cells [4]; 96 μM, 48 h): 8.04%
early apoptotic cells (LR) (HT-29 cells [4]; 96 μM, 72 h): 1.33%
late apoptotic or secondary necrotic cells (UR) (HT-29 cells [4]; 96 μM, 72 h): 15.77%
live cells (LL) (HT-29 cells [4]; 96 μM, 72 h): 52.21%
primary necrotic cells (UL) (HT-29 cells [4]; 96 μM, 72 h): 30.69%
early apoptotic cells (LR) (HT-29 cells [4]; 192 μM, 24 h): 8.46%
late apoptotic cells (UR) (HT-29 cells [4]; 192 μM, 24 h): 25.98%
primary necrotic cells (UL) (HT-29 cells [4]; 192 μM, 24 h): 30.40%
early apoptotic cells (LR) (HT-29 cells [4]; 192 μM, 48 h): 4.74%
live cells (LL) (HT-29 cells [4]; 192 μM, 48 h): 34.22%
primary necrotic cells (UL) (HT-29 cells [4]; 192 μM, 48 h): 35.05%
early apoptotic cells (LR) (HT-29 cells [4]; 192 μM, 72 h): 14.34%
late apoptotic or secondary necrotic cells (UR) (HT-29 cells [4]; 192 μM, 72 h): 58.97%
live cells (LL) (HT-29 cells [4]; 192 μM, 72 h): 12.73%
primary necrotic cells (UL) (HT-29 cells [4]; 192 μM, 72 h): 13.96%
early apoptotic cells (LR) (HT-29 cells [4]; 288 μM, 24 h): 6.71%
late apoptotic cells (UR) (HT-29 cells [4]; 288 μM, 24 h): 50.81%
primary necrotic cells (UL) (HT-29 cells [4]; 288 μM, 24 h): 19.63%
early apoptotic cells (LR) (HT-29 cells [4]; 288 μM, 48 h): 8.51%
late apoptotic cells (UR) (HT-29 cells [4]; 288 μM, 48 h): 54.67%
live cells (LL) (HT-29 cells [4]; 288 μM, 48 h): 26.80%
primary necrotic cells (UL) (HT-29 cells [4]; 288 μM, 48 h): 10.02%
early apoptotic cells (LR) (HT-29 cells [4]; 288 μM, 72 h): 0.28%
late apoptotic or secondary necrotic cells (UR) (HT-29 cells [4]; 288 μM, 72 h): 8.45%
live cells (LL) (HT-29 cells [4]; 288 μM, 72 h): 54.64%
primary necrotic cells (UL) (HT-29 cells [4]; 288 μM, 72 h): 36.63%
viability at 24 h, 96 µM ([5]; 96 μM): 69.3%
viability at 24 h, 192 µM ([5]; 192 μM): 35.2%
viability at 24 h, 288 µM ([5]; 288 μM): 23.8%
IC50 ([6]; MRC5, 24 h): ≥ 384 µM
IC50 ([6]; MRC5, 48 h): 269 ± 0.96 µM
IC50 ([6]; MRC5, 72 h): 356 ± 1.21 µM
IC50 ([7]; WRL68, 24 h): ≥ 384 µM
IC50 ([7]; WRL68, 48 h): 331 ± 0.69 µM
IC50 ([7]; WRL68, 72 h): 235 ± 1.03 µM
expression of Mcl-1 (Mcl-1): significantly upregulated
morphological changes associated to apoptosis (HT-29 cells [9]): membrane blebbing, cell shrinkage, chromatin condensation, apoptotic nuclei, and DNA fragmentation
expression of PUMA (PUMA): significantly upregulated
expression of Bcl-2 (Bcl-2): only up-regulated for 72 h treatment
antioxidant activity [10]: good antioxidant activity
expression of Bak (Bak): only up-regulated for 72 h treatment
antiproliferation activity against MDA-MB231 [1]: displayed antiproliferation activity
